According to ChEMBL document CHEMBL1201862, “PubChem BioAssay data set” (2004):
Each block holds one compound with its values, some of them ahead of it. The source made the active and inactive calls.

How the values were obtained:
Cytochrome P450 1A2 = target: T1, Cytochrome P450 1A2 (Homo sapiens, UniProt P05177);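 further: PubChem cytochrome P450 panel assay, CYP1A2 panel member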
T1 sequence (P05177 whole entry): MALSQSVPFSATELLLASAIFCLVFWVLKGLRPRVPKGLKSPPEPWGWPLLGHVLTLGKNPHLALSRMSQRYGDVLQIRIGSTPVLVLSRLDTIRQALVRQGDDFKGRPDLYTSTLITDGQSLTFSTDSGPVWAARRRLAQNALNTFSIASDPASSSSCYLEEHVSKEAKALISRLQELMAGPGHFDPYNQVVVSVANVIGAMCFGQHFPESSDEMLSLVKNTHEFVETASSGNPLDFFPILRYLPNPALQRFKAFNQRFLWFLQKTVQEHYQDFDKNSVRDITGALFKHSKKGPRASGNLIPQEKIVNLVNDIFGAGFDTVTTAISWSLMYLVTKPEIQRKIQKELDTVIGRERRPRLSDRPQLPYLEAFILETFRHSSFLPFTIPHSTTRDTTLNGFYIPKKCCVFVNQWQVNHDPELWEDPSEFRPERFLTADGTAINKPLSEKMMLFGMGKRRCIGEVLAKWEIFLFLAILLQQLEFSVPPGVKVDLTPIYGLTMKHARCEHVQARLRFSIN

Cytochrome P450 2D6 = Cytochrome P450 2D6 (Homo sapiens, UniProt P10635);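 further: CYP2D6 member of a cytochrome P450 panel assay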
Cytochrome P450 2C19 = Cytochrome P450 2C19 (Homo sapiens, UniProt P33261); test: Cytochrome panel assay with activity outcomes. Panel member name: p450-cyp2c19 Compounds with AC50 equal or less than 10 uM are considered active; assay type: functional
[1] = target: T2, Heat shock factor protein 1 (Mus musculus, UniProt P38532); test: inhibition of MG132-induced HSE-luciferase signal, confirmation, cell-based, NIH3T3, luminescence, dose retest (AID 2382); assay type: functional;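 further: NIH3T3 fibroblasts with HSF1-driven luciferase reporter stressed by proteasome inhibitor MG132; luminescence from HSF1-driven luciferase expression after 8 hours of MG132 stress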
T2 sequence (P38532 whole entry): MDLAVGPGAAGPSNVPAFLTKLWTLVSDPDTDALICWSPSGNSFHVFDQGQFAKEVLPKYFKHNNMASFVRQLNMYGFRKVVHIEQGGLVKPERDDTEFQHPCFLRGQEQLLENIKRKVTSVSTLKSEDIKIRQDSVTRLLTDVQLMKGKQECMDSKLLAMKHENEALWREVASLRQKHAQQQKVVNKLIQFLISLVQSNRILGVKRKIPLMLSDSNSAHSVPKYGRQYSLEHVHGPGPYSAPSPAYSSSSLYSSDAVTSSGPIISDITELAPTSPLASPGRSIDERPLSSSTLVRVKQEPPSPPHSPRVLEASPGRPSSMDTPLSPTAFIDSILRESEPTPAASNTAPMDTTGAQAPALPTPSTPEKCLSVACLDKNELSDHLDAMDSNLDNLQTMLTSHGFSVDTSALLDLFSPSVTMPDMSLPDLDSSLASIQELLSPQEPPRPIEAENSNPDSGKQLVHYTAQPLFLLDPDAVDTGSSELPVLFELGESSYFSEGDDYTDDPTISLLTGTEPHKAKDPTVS

Cytochrome P450 2C9 = Cytochrome P450 2C9 (Homo sapiens, UniProt P11712)
Cytochrome P450 3A4 = Cytochrome P450 3A4 (Homo sapiens, UniProt P08684);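 further: CYP3A4 tested as one member of a cytochrome P450 panel screen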
Cytochrome P450 3A4, sequence (P08684 whole entry): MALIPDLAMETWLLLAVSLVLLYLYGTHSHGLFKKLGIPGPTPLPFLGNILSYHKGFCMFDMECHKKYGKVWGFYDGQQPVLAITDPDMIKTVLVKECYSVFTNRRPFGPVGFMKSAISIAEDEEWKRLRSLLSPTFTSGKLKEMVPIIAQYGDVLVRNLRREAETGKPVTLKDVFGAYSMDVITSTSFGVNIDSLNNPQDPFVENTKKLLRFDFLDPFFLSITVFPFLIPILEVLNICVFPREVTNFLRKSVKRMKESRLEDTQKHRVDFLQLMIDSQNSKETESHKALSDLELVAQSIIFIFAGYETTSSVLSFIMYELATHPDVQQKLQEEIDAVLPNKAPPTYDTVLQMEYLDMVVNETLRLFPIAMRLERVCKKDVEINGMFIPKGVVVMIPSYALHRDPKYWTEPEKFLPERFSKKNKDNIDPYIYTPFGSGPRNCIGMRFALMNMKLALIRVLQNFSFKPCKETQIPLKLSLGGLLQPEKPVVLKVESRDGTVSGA

Cytochrome P450 2C19, sequence (P33261 whole entry): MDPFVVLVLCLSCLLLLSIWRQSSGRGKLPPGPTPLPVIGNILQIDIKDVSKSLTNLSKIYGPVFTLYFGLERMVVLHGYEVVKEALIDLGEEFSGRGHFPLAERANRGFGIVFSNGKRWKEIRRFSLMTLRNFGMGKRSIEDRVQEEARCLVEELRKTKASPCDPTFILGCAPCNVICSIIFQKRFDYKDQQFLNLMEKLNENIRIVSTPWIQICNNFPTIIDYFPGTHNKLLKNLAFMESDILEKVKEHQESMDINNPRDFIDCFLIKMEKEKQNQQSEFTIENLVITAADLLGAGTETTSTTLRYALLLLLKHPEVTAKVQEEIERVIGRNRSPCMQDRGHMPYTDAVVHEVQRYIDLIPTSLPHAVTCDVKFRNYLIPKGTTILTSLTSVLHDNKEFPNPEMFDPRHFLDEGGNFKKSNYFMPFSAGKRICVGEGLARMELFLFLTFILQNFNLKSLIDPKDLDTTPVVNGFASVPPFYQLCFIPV
Cytochrome P450 2C9, sequence (P11712 whole entry): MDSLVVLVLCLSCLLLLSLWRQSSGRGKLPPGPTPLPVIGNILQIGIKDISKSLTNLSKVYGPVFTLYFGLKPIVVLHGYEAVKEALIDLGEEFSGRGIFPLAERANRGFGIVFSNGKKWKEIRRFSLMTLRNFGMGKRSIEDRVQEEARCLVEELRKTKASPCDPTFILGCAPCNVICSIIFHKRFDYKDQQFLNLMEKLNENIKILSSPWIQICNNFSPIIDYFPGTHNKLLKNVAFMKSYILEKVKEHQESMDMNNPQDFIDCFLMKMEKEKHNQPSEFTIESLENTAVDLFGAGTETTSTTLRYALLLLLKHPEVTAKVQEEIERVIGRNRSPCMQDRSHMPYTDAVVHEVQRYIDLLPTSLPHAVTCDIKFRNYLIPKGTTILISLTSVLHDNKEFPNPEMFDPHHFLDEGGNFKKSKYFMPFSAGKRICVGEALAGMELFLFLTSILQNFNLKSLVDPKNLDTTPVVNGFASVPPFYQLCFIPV
Cytochrome P450 2D6, sequence (P10635 whole entry): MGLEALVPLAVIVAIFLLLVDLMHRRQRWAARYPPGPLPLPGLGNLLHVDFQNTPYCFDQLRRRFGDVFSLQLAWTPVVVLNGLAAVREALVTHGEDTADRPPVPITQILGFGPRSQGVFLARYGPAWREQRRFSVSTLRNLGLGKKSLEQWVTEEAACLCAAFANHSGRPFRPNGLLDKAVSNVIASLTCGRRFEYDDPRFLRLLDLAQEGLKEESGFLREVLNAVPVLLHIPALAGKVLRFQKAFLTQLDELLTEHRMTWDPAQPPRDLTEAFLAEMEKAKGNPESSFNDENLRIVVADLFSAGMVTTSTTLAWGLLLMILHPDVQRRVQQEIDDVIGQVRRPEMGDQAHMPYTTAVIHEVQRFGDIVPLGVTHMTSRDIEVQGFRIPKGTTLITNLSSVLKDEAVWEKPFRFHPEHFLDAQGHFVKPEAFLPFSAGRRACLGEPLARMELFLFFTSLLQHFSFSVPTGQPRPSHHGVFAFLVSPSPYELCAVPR

Compound: CN1CCN(c2ncncc2-c2ccoc2)CC1
- AC50 (Cytochrome P450 1A2): 31.6 µM (inconclusive)
- AC50 (Cytochrome P450 2D6): 31.6 µM (inconclusive)
- AC50 (Cytochrome P450 2C19): inconclusive

Compound: O=C(Nc1ccc(F)cc1F)c1cc2nc3c(c(C(F)(F)F)n2n1)CCCC3
- EC50 [1]: < 0.16 µM (active)

Compound: COC(=O)N1CCC2(CCN(C(=O)Nc3ccc(OC)cc3)CC2)CC1
- AC50 (Cytochrome P450 1A2): 25.1 µM (inconclusive)
- AC50 (Cytochrome P450 2D6): 39.8 µM (inconclusive)

Compound: CN(C)CCCn1cc(C2=C(c3c[nH]c4ccccc34)C(=O)NC2=O)c2ccccc21 [GF-109203]
- AC50 (Cytochrome P450 2C9): 15.8 µM (inconclusive)

Compound: O=C(Cn1nnc2ccccc21)N1CCCCC1
- AC50 (Cytochrome P450 2C9): 0.00562 µM (inconclusive)
- AC50 (Cytochrome P450 2C19; read-out: AC50): 22.4 µM (inconclusive)

Compound: O=C(c1ccncc1)N1CCC2(CC1)CN(c1ccncc1)C2
- AC50 (Cytochrome P450 2C9): 31.6 µM (inconclusive)

Compound: O=C(C[C@@H](c1ccccc1)N1CCCCC1)c1ccccc1
- AC50 (Cytochrome P450 2C9): 3.16 µM (inconclusive)

Compound: CCNc1ncc2nc(C)c(=O)n(C)c2n1
- AC50 (Cytochrome P450 2D6): 39.8 µM (inconclusive)

Compound: CC(C)(C)NC(=O)C(=O)N/N=C/c1ccc(Br)cc1
- AC50 (Cytochrome P450 2C9): 15.8 µM (inconclusive)
- AC50 (Cytochrome P450 1A2): 15.8 µM (inconclusive)

Compound: CCc1nnc(NC(=O)CSc2nc(C)c3c(c2C#N)CCCC3)s1
- EC50 [1]: > 195 µM (not active)

Compound: CC(C)OC(=O)c1nnn(-c2nonc2N)c1CSc1ccccn1
- AC50 (Cytochrome P450 2D6): 15.8 µM (inconclusive)

Compound: COc1cc(/C=C/C(=O)Nc2ccccc2C(F)(F)F)cc(OC)c1OC
- AC50 (Cytochrome P450 1A2): 28.2 µM (inconclusive)
- AC50 (Cytochrome P450 2C19; read-out: AC50): 17.8 µM (inconclusive)
- AC50 (Cytochrome P450 3A4): 14.1 µM (inconclusive)

Compound: CC(=O)OC[C@@H]1O[C@H](C/C=N\OC[C@@H](C)[C@H](OCc2ccccc2)C(C)C)C=C[C@@H]1OC(C)=O
- AC50 (Cytochrome P450 2C9): 6.31 µM (inconclusive)

Compound: O=C(CCN1C(=O)/C(=C/c2ccc(F)cc2)SC1=S)NCCCn1ccnc1
- EC50 [1]: > 195 µM (not active)

Compound: CC(C)C[C@H]1C(=O)N2CCC[C@@H]2[C@]2(O)O[C@](NC(=O)[C@@H]3C=C4c5cccc6[nH]c(Br)c(c56)C[C@H]4N(C)C3)(C(C)C)C(=O)N12
- AC50 (Cytochrome P450 2C9): 10 µM (inconclusive)

Compound: O=C(CC1CCCCC1)N1CCC(c2nc(-c3ccc(S(=O)(=O)N4CCCC4)cc3)no2)CC1
- AC50 (Cytochrome P450 3A4): 14.1 µM (inconclusive)

Compound: CC(C)c1ccc2oc(=O)cc(CN3CCCCC3)c2c1
- EC50 [1]: > 195 µM (not active)

Now from value to compound:

- EC50 [1]: > 195 µM (not active)
Compound: C/C(Cc1ccccc1)=N\NC(=O)CNC(=O)Cc1ccc(Cl)cc1

- AC50 (Cytochrome P450 2C9): 15.8 µM (inconclusive)
Compound: CC(=O)NCCc1c(Cc2ccccc2)[nH]c2ccccc12 [LUZINDOLE]

- AC50 (Cytochrome P450 2D6): 20 µM (inconclusive)
Compound: COC(=O)[C@@]1(Cc2ccc(F)cc2)[C@H]2c3cc(C(=O)N(C)C)n(Cc4ccc(C(F)(F)F)nc4)c3C[C@H]2CN1C(=O)c1ccccc1

- AC50 (Cytochrome P450 3A4): 15.8 µM (inconclusive)
Compound: C[C@@H](C(=O)O)[C@@H]1C[C@@]1(C)[C@@H](NC(=O)OCc1ccccc1)c1ccccc1

- AC50 (Cytochrome P450 2D6): 39.8 µM (inconclusive)
Compound: c1ccc(CNc2ncncc2-c2cccnc2)cc1

- AC50 (Cytochrome P450 2C9): 8.91 µM (inconclusive)
Compound: CCCCN(C(=O)NC(=O)Nc1ccccc1OCC)S(C)(=O)=O

- AC50 (Cytochrome P450 3A4): 12.6 µM (inconclusive)
Compound: C[C@@H](C(=O)O)[C@H]1C[C@]1(C)[C@H](NC(=O)OCc1ccccc1)c1ccccc1

- AC50 (Cytochrome P450 2C9): 0.708 µM (inconclusive)
- AC50 (Cytochrome P450 2C19; read-out: AC50): 1 µM (inconclusive)
Compound: Cc1ccc2[nH]c(-c3ccc(NC(=O)Cc4cccs4)cc3)nc2c1

- AC50 (Cytochrome P450 1A2): 7.08 µM (inconclusive)
- AC50 (Cytochrome P450 2D6): 15.8 µM (inconclusive)
Compound: CCc1ccc(N/C(SCc2ccccc2C)=C(/C#N)C(=O)NCc2ccco2)cc1

- AC50 (Cytochrome P450 3A4): 25.1 µM (inconclusive)
Compound: O=C(NNS(=O)(=O)c1ccc(Cl)cc1)c1cnn(-c2ccccc2)c1-n1cccc1

- EC50 [1]: > 195 µM (not active)
Compound: O=C(Nc1ccc(Cl)cc1)C1CCCN1C(=O)NCc1ccccc1 (centres undefined)

- EC50 [1]: > 195 µM (not active)
Compound: Fc1ccc(-n2cc(CNCCc3ccccn3)c(-c3ccccc3Cl)n2)cc1

- EC50 [1]: > 195 µM (not active)
Compound: Cc1ccc(-c2n[nH]cc2/C=N/n2c(C)nc3ccccc3c2=O)cc1
